Source: US20260138970A1, “MODULATORS OF THE CALCIUM SIGNALING CASCADE” (FONDAZIONE TELETHON ETS, priority 2022, published 2026)

Experiments:
Assay type in all cases: cell-based
[1] = system: ENaC; assay: Short-circuit current recordings on human cultured bronchial epithelia, ENaC function; settings: apical addition; ARN7149 10 μM, ARN11391 20 μM, ARN4550 20 μM, UTP 10 nM; FIG. 9
Source text: In a further experimental setting, snapwell supports (cc3801, Corning) carrying differentiated bronchial epithelia generated in vitro were mounted in a vertical chamber resembling an Ussing system with internal fluid circulation (EM-CSYS-8, Physiologic Instruments, San Diego, CA, USA). The apical and basolateral hemichambers were filled with a solution containing (in mM): 126 NaCl, 0.38 KH2PO4, 2.13 K2HPO4, 1 MgSO4, 1 CaCl2), 24 NaHCO3, and 10 glucose. Both sides were continuously bubbled with a gas mixture containing 5% CO2 and 95% air. The temperature of the solution was kept at 37° C. throughout the experiment.
During recordings, the following molecules (in addition to ARN7149, ARN11391, and ARN4550) were added in the apical solution: elastase (SE2093002, Serva); UTP (U6625, Merck); amiloride (A7410, Merck). Transepithelial voltage was short-circuited with a voltage-clamp (VCC MC8, Physiologic Instruments, San Diego, CA, USA) connected to the apical and basolateral chambers via Ag—AgCl electrodes and agar bridges (2% agar in 1 M KCl). The offset between voltage electrodes and the fluid resistance were cancelled before experiments. The resulting short-circuited current from each channel was recorded on a personal computer with the Acquire & Analize 2.3 software (Physiologic Instruments, San Diego, CA, USA).

[2] = biological target: T1, CCK1 receptor (Homo sapiens, UniProt P32238); assay: Fluo-4 Ca2+ assay in Chem-1 cells expressing CCK1 receptor; settings: CCK8s 0.25 nM; vs vehicle (DMSO); FIG. 10
T1 construct: host or cells: Chem-1 cells
T1 sequence (P32238 1-428): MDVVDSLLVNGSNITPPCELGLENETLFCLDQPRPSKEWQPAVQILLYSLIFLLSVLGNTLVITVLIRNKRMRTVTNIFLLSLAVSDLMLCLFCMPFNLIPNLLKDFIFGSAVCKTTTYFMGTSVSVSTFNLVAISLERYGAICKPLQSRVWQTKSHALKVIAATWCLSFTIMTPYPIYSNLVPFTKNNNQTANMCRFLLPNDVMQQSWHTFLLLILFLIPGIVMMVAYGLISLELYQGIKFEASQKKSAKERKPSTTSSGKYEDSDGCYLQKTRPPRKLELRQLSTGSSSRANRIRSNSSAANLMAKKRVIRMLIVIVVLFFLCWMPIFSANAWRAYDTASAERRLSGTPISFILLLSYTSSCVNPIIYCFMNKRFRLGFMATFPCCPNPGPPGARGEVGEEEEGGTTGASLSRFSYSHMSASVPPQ
Experimental: Chem-1 cells expressing the CCK1 receptor (HTS184RTA, Merck) were cultured in Dulbecco's MEM/F12 (ECM0090L, EuroClone) with 10% fetal bovine serum, 2 mM L-glutamine, 100 U/ml penicillin and 100 μg/ml streptomycin.
In a further experimental setting, experiments were performed using as above the FLUOstar Omega (BMG Labtech, Offenburg, Germany) microplate reader equipped with syringe pumps and optical excitation/emission filters optimized for yellow fluorescent protein (YFP) fluorescence (ET500/20× and ET535/30m, respectively; Chroma Technology Corporation). FRT and Chem-1 cells were cultured until confluence in 96-well microplates (cc3603, Corning). Cells were washed 2 times with PBS (150 μl/wash) and then loaded for 1 h at 37° C. with 5 μM Fluo-4/AM (Thermo Fisher Scientific; catalog number: F23917) in PBS containing 10 mM glucose, 0.5 mM sulfinpyrazone, and 1% fetal bovine serum. […] Fluo-4 fluorescence (500 nm excitation, 535 nm emission) was detected every 200 ms for 16-40 s. Two seconds after the start of fluorescence recording, the reader automatically injected 165 μl of a modified PBS containing 136 mM KCl instead of NaCl. […] The Fluo-4 fluorescence increase was quantified using a procedure compiled in Microsoft Excel after background subtraction and normalization for the initial value measured before UTP or CCK8s addition.

[3] = system: TMEM16A; assay: HS-YFP assay in ITPR-defective HEK293 cells transiently transfected with TMEM16A; settings: UTP 5 μM, compound 10 μM, FIG. 2D
[4] = biological target: T2, T267M ITPR1 (Homo sapiens, UniProt Q14643, T267M); assay: IP3 uncaging assay, HEK293 cells expressing T267M-ITPR1; settings: compound 10 μM; tetracycline-treated; FIG. 6D
T2 construct: expressed in transfected cells
Experimental: HEK293 cells stably transfected with tetracycline-inducible expression of wild type or mutant (R269W or T267M) ITPR1, kindly provided by Prof. S. R. Wayne Chen (University of Calgary; ref. 14), were cultured in a mixture of Dulbecco's Modified Eagle Medium (DMEM, high glucose version) and Ham's F12 (1:1) and supplemented with 10% fetal bovine serum, 2 mM L-glutamine, 100 U/ml penicillin and 100 μg/ml streptomycin. Cells were selected with 0.5 mg/ml hygromycin B and induced with 1 μg/ml tetracycline.
FRT and HEK293 cells were cultured in μ-Plate96 microplates (Ibidi) at subconfluent condition. Cells were washed 2 times with PBS (150 μl/wash) and then loaded for 45 min at 37° C. with 1 μM ci-IP3/PM (Tocris; catalog number: 6210/10U) and 5 μM Fluo-4/AM (Thermo Fisher Scientific) in PBS containing 10 mM glucose, 0.5 mM sulfinpyrazone and 1% fetal bovine serum. After 45 min, cells were further incubated for 1 h at 37° C. with a fresh PBS solution containing Fluo-4/AM, glucose, sulfinpyrazone, serum, but no ci-IP3/PM. […] Analysis was performed with MetaFluor software, by quantifying Fluo-4 fluorescence in manually selected single cell region of interest (ROI). […] After background subtraction, fluorescence traces were normalized for the initial value.

T2 sequence (Q14643 whole entry T267M): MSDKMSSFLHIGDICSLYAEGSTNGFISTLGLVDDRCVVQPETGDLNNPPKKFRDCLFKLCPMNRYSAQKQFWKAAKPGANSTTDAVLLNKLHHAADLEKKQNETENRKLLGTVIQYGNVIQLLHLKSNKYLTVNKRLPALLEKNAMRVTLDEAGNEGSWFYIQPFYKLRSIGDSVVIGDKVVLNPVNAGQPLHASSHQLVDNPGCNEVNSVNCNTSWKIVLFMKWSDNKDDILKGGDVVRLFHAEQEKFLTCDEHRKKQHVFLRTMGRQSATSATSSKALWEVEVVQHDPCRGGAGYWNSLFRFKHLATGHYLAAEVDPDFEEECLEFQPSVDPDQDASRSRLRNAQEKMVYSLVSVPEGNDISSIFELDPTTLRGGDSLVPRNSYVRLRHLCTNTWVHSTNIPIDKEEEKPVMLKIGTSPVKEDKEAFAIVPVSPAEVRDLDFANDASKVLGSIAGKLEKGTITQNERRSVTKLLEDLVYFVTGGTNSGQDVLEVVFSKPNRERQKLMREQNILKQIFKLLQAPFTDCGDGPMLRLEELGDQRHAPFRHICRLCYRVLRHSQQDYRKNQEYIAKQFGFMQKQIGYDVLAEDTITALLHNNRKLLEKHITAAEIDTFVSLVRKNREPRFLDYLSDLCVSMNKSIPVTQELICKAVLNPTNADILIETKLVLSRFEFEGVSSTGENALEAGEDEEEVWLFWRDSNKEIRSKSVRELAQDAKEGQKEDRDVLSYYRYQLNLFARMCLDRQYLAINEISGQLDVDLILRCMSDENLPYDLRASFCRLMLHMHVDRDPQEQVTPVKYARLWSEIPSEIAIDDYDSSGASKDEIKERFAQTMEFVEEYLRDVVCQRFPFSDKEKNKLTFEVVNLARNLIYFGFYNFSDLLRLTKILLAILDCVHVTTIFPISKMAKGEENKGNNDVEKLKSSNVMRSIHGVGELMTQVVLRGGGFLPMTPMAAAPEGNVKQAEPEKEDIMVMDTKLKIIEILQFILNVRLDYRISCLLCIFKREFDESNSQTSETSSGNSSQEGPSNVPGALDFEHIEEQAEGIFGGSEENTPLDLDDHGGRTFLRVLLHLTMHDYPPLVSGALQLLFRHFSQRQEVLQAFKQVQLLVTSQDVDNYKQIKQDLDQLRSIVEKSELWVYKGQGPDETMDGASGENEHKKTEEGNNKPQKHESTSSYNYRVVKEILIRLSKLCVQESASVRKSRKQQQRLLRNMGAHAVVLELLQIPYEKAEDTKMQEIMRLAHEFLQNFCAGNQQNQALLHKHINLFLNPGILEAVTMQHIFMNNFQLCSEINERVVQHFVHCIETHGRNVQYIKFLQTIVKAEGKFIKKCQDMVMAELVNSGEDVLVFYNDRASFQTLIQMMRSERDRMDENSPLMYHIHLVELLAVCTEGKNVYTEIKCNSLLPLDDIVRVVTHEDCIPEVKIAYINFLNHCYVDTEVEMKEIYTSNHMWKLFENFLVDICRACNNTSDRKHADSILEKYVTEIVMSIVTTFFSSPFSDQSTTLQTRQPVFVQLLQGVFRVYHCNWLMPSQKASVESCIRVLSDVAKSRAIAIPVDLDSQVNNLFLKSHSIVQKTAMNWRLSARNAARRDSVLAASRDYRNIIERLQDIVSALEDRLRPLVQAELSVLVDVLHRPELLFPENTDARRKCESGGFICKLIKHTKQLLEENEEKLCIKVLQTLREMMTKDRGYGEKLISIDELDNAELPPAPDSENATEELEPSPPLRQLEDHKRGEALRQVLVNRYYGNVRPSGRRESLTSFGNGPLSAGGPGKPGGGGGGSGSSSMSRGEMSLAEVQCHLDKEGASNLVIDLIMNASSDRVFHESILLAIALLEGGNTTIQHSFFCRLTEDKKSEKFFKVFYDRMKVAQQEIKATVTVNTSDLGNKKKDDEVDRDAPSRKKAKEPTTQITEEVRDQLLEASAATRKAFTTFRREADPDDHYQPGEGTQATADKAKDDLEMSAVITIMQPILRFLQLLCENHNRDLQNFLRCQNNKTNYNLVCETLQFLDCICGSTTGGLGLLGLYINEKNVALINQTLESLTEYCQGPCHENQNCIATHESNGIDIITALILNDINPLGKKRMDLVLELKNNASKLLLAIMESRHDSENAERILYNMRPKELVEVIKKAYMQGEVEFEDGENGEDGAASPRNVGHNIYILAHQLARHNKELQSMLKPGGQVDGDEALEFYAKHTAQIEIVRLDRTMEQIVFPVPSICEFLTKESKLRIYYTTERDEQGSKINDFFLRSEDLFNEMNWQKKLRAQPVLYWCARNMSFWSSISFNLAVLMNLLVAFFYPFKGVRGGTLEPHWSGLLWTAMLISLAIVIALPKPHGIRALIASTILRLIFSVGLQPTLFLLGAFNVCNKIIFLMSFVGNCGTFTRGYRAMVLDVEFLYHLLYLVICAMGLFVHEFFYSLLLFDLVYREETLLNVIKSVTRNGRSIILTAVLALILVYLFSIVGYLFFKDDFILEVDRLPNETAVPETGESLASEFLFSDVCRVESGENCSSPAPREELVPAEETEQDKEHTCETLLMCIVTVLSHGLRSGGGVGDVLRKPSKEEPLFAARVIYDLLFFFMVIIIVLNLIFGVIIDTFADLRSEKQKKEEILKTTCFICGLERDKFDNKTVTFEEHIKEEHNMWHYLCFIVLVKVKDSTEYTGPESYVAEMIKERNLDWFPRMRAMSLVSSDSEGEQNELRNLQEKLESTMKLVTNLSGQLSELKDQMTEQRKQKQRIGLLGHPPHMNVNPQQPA

Compound	ENaC current decay (ENaC inhibition), short-circuit current [1]	effect on CCK8s-induced Ca2+ mobilization [2]	activation of TMEM16A by UTP with/without compound (HS-YFP) [3]	Ca2+ mobilization elicited by IP3 uncaging, T267M-ITPR1 [4]
OCc1ccccc1CN(Cc1ccnc(N2CCCC2)n1)c1ccc(F)cc1 [ARN4550, [2-[[4-Fluoro-N-[(2-pyrrolidin-1-ylpyrimidin-4-yl)methyl]anilino]methyl]phenyl]methanol]	caused ENaC current decay	significantly enhanced	–	–
CCc1cc(-c2cc(NCCCOc3ccccc3C)nc(N)n2)n(C)n1 [ARN7149, 6-(3-Ethyl-1-methyl-1H-pyrazol-5-yl)-N^4-(3-(o-tolyloxy)propyl)pyrimidine-2,4-diamine]	caused ENaC current decay	lack of activity	–	–
CCn1nc2c(c1C(=O)Nc1ccccc1OCC1CCCCO1)CCCC2 (stereo not drawn) [ARN11391, 2-Ethyl-N-[2-(tetrahydropyran-2-ylmethoxy)phenyl]-4,5,6,7-tetrahydroindazole-3-carboxamide]	–	–	no activation	significantly amplified
